Read-outs that look alike come from different tables or passages of the source.

The subject of assay [1] is SW480 cells. The experiment in a line: Wnt pathway gene (qRT-PCR) and protein (immunoblot) expression. It counts as cell-based, human. Conditions: SW480, 24 hours, compared to DMSO. The protocol:
Fold-change relative to DMSO is shown (n=3 biological replicates per group, Mean±SD, **P<0.01; ***P<0.001, student's two-tailed t-test).
FIG. 6D is an immunoblot showing Wnt pathway-related protein expression in SW480 cells treated as indicated for 24 hours. The proteins were separated into nuclear and cytoplasmic fractions. GAPDH and Lamin B1 represent cytoplasmic and nuclear protein loading controls, respectively. The blots are representative of two experiments.
FIG. 6E is an immunoblot showing Wnt pathway-related protein expression in SW480 cells treated as indicated for 48 hours. The proteins were separated into nuclear and cytoplasmic fractions. GAPDH and Lamin B1 represent cytoplasmic and nuclear protein loading controls, respectively. The blots are representative of two experiments.
The fold-change relative to DMSO is shown (n=3 biological replicates per group, Mean±SD, *P<0.05; **P<0.01; ***P<0.001, student's two-tailed t-test).
FIG. 7C is an immunoblot showing protein expression of hits identified in FIG. 7A. SW480 cells were treated as indicated for 24 hours and proteins were separated into nuclear and cytoplasmic fractions. GAPDH and Lamin B1 represent the cytoplasmic and nuclear protein loading controls, respectively. The blots are representative of two experiments.
(§1) For indicated experiments, cells were pelleted by centrifugation and washed with PBS and protein from the cell pellet was fractionated into cytoplasmic and nuclear fractions using a NE-PER™Nuclear and Cytoplasmic Extraction Reagents kit containing Halt™ protease and phosphatase inhibitors (Thermo Fisher). Protein concentrations of the samples were quantified using the Pierce Micro BCA protein assay kit (Thermo Fisher). […] Primary antibodies were incubated overnight at 4° C., with GAPDH, Lamin B1 or β-actin being used as loading controls (refer to Table 19 for primary antibodies and dilutions used).
Total RNA was isolated using RNeasy Plus mini kit (Qiagen) or MagMAX Total RNA kit (Thermo Fisher) as per the manufacturers' protocol. cDNA was synthesized using the iScript cDNA Synthesis Kit (Bio-Rad), followed before performing qRT-PCR. Reactions were then run on a real-time PCR system (CFX384; Bio-Rad). Relative gene expression was determined by normalizing to GAPDH using the ΔΔCt method.
On the technique in general: Quantitative PCR measures a nucleic acid by following its amplification.

Assay [2] deals with nuclear speckles in SW480 cells. The experiment in a line: Nuclear speckle staining (phospho-SC35). It counts as cell-based, human. To be noted: SW480, 6 hours, 0.3-10 μM. The protocol:
[…]. The cells were stained with a phospho-SC35 antibody (green) and a Hoechst 33342 nuclear stain (blue). Scale bar, 10 μm.
FIG. 9A is a set of representative immunofluorescence images (×100 magnification) of SW480 cells treated with indicated concentrations for 6 hours. The cells were stained with a phospho-SC35 antibody (green) and a Hoechst 33342 nuclear stain (blue). Scale bar, 10 μm.
[…]. After approximately 6 hr, cells were fixed and stained a phospho-SC35 antibody (Santa Cruz Biotechnology). Cells were then labelled with an Alexa-Fluor 488 secondary antibody (Thermo Fisher) containing DAPI (Thermo Fisher). Cells were imaged at 100× magnification.

Assay [3] concerns SRSF6 and SRSF5 phosphorylation in SW480 cells. The experiment in a line: SR phosphorylation immunoblot. Type of assay: cell-based, human. Conditions: SW480, 1 hour. The protocol: FIG. 6A is an immunoblot showing phosphorylated SRSF6 and SRSF5 in SW480 cells treated as indicated for 1 hour. Total SRSF5 and R-actin blots were used as loading controls. The blots are representative of two experiments.
First, it was determined that CLK1, CLK2, and CLK3 localized into the nucleus, while CLK4 was predominantly detected in the cytoplasm (FIG. 5). […]. Zhou et al., Chromosoma 122, 191-207, 2013).
as §1
(In general: In western blotting, separated proteins are transferred to a membrane and probed.)

The target in assay [4] is CLK3 (Homo sapiens, UniProt P49761). Kind of assay: CLK3 kinase activity assay (Z-lyte, Ser/Thr 18 peptide).
Assay [5] has as its system SW480 colorectal cancer cells. The experiment in a line: Gene expression qRT-PCR in SW480 cells. It counts as cell-based. Conditions: Homo sapiens. The protocol:
SW480 colorectal cancer cells were plated at 1×10^4 cells per well into 96-well plates (Olympus). Compounds were diluted in cell culture media and added to the cells at a final concentration of 3 μM. Cells were treated with vehicle (DMSO) and compounds for 24 hours. N=3 biological replicates per conditions.
Following treatment, cells were lysed, and cDNA was generated using the Fastlane Cell cDNA Kit (Qiagen).
384-well PCR plates with pre-spotted primers for CLK1, CLK2, CLK3, DVL2, LRP5, SRSF1, SRSF3, SRSF4, SRSF5, TCF7, TCF7L2 were ordered from Bio-Rad. The generated cDNA, along with a SYBR Green qRT-PCR master mix (SsoAdvanced™ Universal SYBR® Green Supermix, Bio-Rad) was added to the PCR plates.
qRT-PCR was performed on the plates using a CFX384 Touch™ Real-Time PCR Detection System (Bio-Rad) with the manufacturer's recommended thermal cycling conditions.
Data from the qRT-PCR assay was normalized to the GAPDH and HPRT1 housekeeping genes and set gene expression fold change was set relative to vehicle-treated cells using the ΔΔCt analysis method.

For assay [6], the target named is T1, CLK2 (Homo sapiens, UniProt P49760).
T1 construct: purchased Thermo Fisher (Life Technologies), Z'-LYTE Kinase Assay Kits
Kind of assay: CLK2 kinase activity assay (Z-lyte, Ser/Thr 6 peptide). To be noted: recombinant CLK2 kinase, ATP 60 μM; read-out: EC50. It counts as biochemical. The protocol:
All reactions were performed in duplicate.

Assay [7] concerns Wnt-responsive Sp5-Luc reporter in SW480 colon carcinoma cells. Kind of assay: Wnt activity screening assay (Sp5-Luc reporter). Conditions: Homo sapiens. It counts as cell-based. An excerpt: The screening assay for Wnt activity is described as follows. Reporter cell lines can be generated by stably transducing cancer cell lines (e.g., colon cancer) or primary cells (e.g., IEC-6 intestinal cells) with a lentiviral construct that includes a Wnt-responsive promoter driving expression of the firefly luciferase gene.
SW480 colon carcinoma cells were transduced with a lentiviral vector expressing luciferase with a human Sp5 promoter consisting of a sequence of eight TCF/LEF binding sites. […] These stably transduced SW480 cells were expanded in cell culture and used for all further screening activities. […] For Sp5-Luc reporter gene assays, the cells were plated at 4,000 cells/well in 384-well plates with a DMEM medium containing 1% fetal bovine serum, and 1% Penicillin-Streptomycin and incubated for 36 to 48 hours at 37° C. and 5% CO2. Following incubation, 15 μL of BriteLite Plus luminescence reagent (Perkin Elmer) was added to each well of the 384-well assay plates. The plates were placed on an orbital shaker for 2 min and then luminescence was quantified using the Envision (Perkin Elmer) plate reader.

The test system of assay [8] is all 50 cell lines. Kind of assay: CellTiter-Glo Viability Assay, average across all cell lines. It counts as cell-based. Conditions: Homo sapiens; across all 50 cell lines; read-out: average EC50 for inhibition of cancer cell proliferation. The protocol:
Fifty-one human cancer cell lines (breast cancer (8 cell lines), colorectal cancer (6 cell lines), haematopoietic & lymphoid tumors (13 cell lines), liver cancer (3 cell lines), lung cancer (4 cell lines), ovarian cancer (4 cell lines), pancreatic cancer (8 cell lines), and prostate cancer (5 cell lines)) were tested to determine the effects of representative compounds of Formulas (I)-(XII) on cellular proliferation, as evaluated using the CellTiter-Glo® Viability Assay.
For the Cell Viability Assays, cells were plated at 300-3,000 cells/well in 384-well plates in their respective media containing 1% Penicillin-Streptomycin and incubated for four days at 37° C. and 5% CO2. Twenty-eight replicates of DMSO-treated cells served as controls and cells treated with compound were performed in duplicate.
After incubation, 10 μL of CellTiter-Glo® (Promega) was added to each well allowed to incubate for approximately 12 minutes. This reagent results in cell lysis and generation of a luminescent signal proportional to the amount of ATP present. The amount of ATP is directly proportional to the number of metabolically active, viable cells present in culture. The CellTiter-Glo® Assay generates a luminescent signal, produced by the luciferase reaction (Promega.com).
After incubation, the luminescence signal was read using an EnVision™ Multilabel Plate Reader (Perkin Elmer). Dose-response curves were generated and EC50 concentration values were calculated using Dotmatics' Studies Software (Bishops Stortford, UK).
(In general: In ATP-based viability assays light output follows the ATP content of the culture.)

In assay [9] the test system is Wnt responsive TOPflash reporter in SW480 colon cancer cells. Kind of assay: TOPflash β-catenin/TCF-responsive reporter assay. It counts as cell-based, human. The protocol: Human colorectal cancer cell line SW480, stably expressing the Wnt responsive TOPflash promoter linked to luciferase gene (TOPflash) was used along with SW480 stably expressing a control EF1a-Luciferase reporter gene (GenTarget #LVP434) as a counterscreen. […] Cells were plated at ˜10,000 cells/well and incubated for 40 hours. Luminescence was detected using Bright-Glo (Promega Corp.).

Setting [10] is: SW480 Sp5-Luc reporter, 36 to 48 hours, read-out: EC50.

CLK3, sequence (P49761 whole entry): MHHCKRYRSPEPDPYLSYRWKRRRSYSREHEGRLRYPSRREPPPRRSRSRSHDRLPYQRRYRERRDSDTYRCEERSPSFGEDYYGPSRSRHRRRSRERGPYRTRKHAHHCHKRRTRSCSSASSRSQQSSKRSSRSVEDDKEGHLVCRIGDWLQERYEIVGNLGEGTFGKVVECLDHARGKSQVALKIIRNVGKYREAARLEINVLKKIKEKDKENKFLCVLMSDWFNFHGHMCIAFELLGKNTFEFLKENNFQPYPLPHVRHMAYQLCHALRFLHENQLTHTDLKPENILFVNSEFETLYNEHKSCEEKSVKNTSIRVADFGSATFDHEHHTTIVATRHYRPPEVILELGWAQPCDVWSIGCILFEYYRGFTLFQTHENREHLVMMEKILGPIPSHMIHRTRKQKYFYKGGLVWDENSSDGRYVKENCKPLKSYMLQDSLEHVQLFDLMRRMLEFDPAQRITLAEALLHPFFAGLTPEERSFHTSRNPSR
T1 sequence (P49760 whole entry): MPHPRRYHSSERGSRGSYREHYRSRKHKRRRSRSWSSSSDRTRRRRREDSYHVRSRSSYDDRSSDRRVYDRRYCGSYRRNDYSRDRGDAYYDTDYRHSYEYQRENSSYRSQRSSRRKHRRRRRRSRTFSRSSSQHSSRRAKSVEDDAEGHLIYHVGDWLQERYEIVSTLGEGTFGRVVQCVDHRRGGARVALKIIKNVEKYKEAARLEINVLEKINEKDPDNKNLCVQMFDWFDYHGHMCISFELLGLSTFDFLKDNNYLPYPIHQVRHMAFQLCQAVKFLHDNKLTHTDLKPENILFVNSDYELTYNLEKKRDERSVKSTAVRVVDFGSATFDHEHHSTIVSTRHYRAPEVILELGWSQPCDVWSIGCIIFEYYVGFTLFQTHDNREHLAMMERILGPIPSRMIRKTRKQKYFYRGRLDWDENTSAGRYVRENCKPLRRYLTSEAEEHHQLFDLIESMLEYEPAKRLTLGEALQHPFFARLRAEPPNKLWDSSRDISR

In the case of `CNC(=O)c1ccc(Nc2nc(OC3CCCC3)c3c(-c4ccc5nc(C)oc5c4)c[nH]c3n2)c(OC)c1` [CC-671, reference compound], in assay [1], the “gene expression of AXIN2, LEF1, MYC, TCF7, CTNNB1 and TCF7L2” value was “minimal effect”. Moreover, in assay [2], the “enlargement of nuclear speckles” value is “only at higher doses of 10 μM and 3 μM”. Further, the “SR phosphorylation (SRSF6, SRSF5)” value in assay [3] is reported as “not as effective as Compound 12”.

Regarding `CCS(=O)(=O)c1cccc(-c2cc(C(=O)NC3CCN(C)CC3)c(C)c3[nH]c4ncc(C)cc4c23)c1` [Compound 24], the figures for the EC50 in assay [4], in [6] and in assay [7] (SW480) were 70 nM, 3 nM and 320 nM, respectively. The fold induction at 3 µM stood at 0.35 in [5] (SW480, 24 h, read-out: gene expression fold change CLK1); 0.19 in assay [5] (SW480, 24 h, read-out: gene expression fold change CLK2); 0.19 in assay [5] (SW480, 24 h, read-out: gene expression fold change CLK3); 0.39 in [5] (SW480, 24 h, read-out: gene expression fold change DVL2); 0.34 in [5] (SW480, 24 h, read-out: gene expression fold change LRP5); 0.46 in assay [5] (SW480, 24 h, read-out: gene expression fold change SRSF1). Moreover, the fold induction at 3 µM in assay [5] (SW480, 24 h, read-out: gene expression fold change SRSF3) was 0.31; in assay [5] (SW480, 24 h, read-out: gene expression fold change SRSF4) it was 0.37; in assay [5] (SW480, 24 h, read-out: gene expression fold change SRSF5), 0.49; in assay [5] (SW480, 24 h, read-out: gene expression fold change TCF7), 0.49; in [5] (SW480, 24 h, read-out: gene expression fold change TCF7L2), 0.33.

With `Cc1nc(Nc2n[nH]c3c2CN(C(=O)N[C@H](CN(C)C)c2ccccc2)C3(C)C)c2sccc2n1` [Compound 25], the EC50 is 144 nM in [4], 10 nM in assay [6] and 114 nM in [7] (setting [10]). The fold induction at 3 µM in [5] (SW480, 3 μM, 24 hours, relative to DMSO, read-out: gene expression fold change CLK1) came to 0.07; in assay [5] (SW480, 3 μM, 24 hours, relative to DMSO, read-out: gene expression fold change CLK2), 0.09; in assay [5] (SW480, 3 μM, 24 hours, relative to DMSO, read-out: gene expression fold change CLK3), 0.08; in assay [5] (SW480, 3 μM, 24 hours, relative to DMSO, read-out: gene expression fold change DVL2) it was 0.21; in assay [5] (SW480, 3 μM, 24 hours, relative to DMSO, read-out: gene expression fold change LRP5) it was 0.09; in assay [5] (SW480, 3 μM, 24 hours, relative to DMSO, read-out: gene expression fold change SRSF1), 0.2. For the same molecule, the fold induction at 3 µM in [5] (SW480, 3 μM, 24 hours, relative to DMSO, read-out: gene expression fold change SRSF3) was 0.1; in [5] (SW480, 3 μM, 24 hours, relative to DMSO, read-out: gene expression fold change SRSF4) it was 0.09; in assay [5] (SW480, 3 μM, 24 hours, relative to DMSO, read-out: gene expression fold change SRSF5) it was 0.19; in assay [5] (SW480, 3 μM, 24 hours, relative to DMSO, read-out: gene expression fold change TCF7), 0.21; in [5] (SW480, 3 μM, 24 hours, relative to DMSO, read-out: gene expression fold change TCF7L2) it was 0.11.

On to `CC(C)CC(=O)Nc1cncc(-c2cc3c(-c4nc5c(-c6cc(F)cc(OCCN7CCCC7)c6)cncc5[nH]4)n[nH]c3cn2)c1` [Compound 45], for which the EC50 in [8] was 8490 nM; in assay [7] (setting [10]) it was over 10000 nM.

As to `CN(C)CCOc1cncc(-c2cc3c(-c4cc5c(-c6cccnc6)ccnc5[nH]4)n[nH]c3cn2)c1` [Compound 49], the EC50 is 19.3 nM in [4], 2.2 nM in assay [6], 9720 nM in assay [8] and over 10000 nM in assay [7] (setting [10]).

Consider `Cc1ncc(-c2cnc3[nH]nc(-c4cc5c(-c6cc(F)cc(NCCN(C)C)c6)ccnc5[nH]4)c3c2)n1C` [Compound 52], for which the EC50 stood at 26.6 nM in assay [4], 1.9 nM in assay [6] and 8460 nM in assay [8].

Take `O=C(Nc1c[nH]nc1-c1nc2c(-c3cccc(F)c3)cncc2[nH]1)C1CCNCC1` [Compound 89]: the EC50 amounted to 30.5 nM in assay [4], 2.2 nM in assay [6], 8500 nM in [8] and 2170 nM in assay [7] (setting [10]).

Take `C[C@H]1[C@H]2N(C(=O)CN(C)N2C(=O)NCc2ccccc2)[C@@H](Cc2ccc(OP(=O)(O)O)cc2)C(=O)N1Cc1cccc2cccnc12` [PRI-724]: the EC50 in [9] stood at 1060 nM.
